From patent US4110328A, “Bis-carbamylguanidinoazaalkane antimicrobial compounds” (Cooper Laboratories, Inc., priority 1976, dated 1978)
Converted amounts (≈) assume the structure as drawn. “Also recorded” adds a separate entry of the source. Where a name gives a salt, the structure may show the parent alone.

What was measured:
E. coli = assay: Serial dilution MIC test, E. coli; format: cell-based; conditions: Escherichia coli, read-out: MINIMUM […]. E. coli; trypticase soy broth, 37° C, 36 hours; read-out: MINIMUM INHIBITORY CONCN. E. coli
Experimental: (§1) A quantitative serial dilution test may also be performed by the following procedure.
(§2) A 20 mg/ml solution of the compound to be tested is prepared in a standard brain-heart infusion broth medium which has been diluted with water to one-half standard strength.
(§3) Serial dilutions are prepared by adding 1 ml of the solution to a test tube containing 9 ml of medium. Five milliliters of the resulting solution are then added to another test tube containing 5 ml of the medium. The resulting solution is then again diluted by the same procedure. Ordinarily one tenfold dilution and four twofold dilutions are made. The procedure can be continued if more dilute solutions are required. Each of the series of tubes containing solutions of the compounds to be assayed is inoculated with two drops of a heavy culture of the chosen microorganisms in the brain-heart infusion broth. The tubes are incubated at 37° C for 36 hours and the most dilute solution showing no microbial growth is noted. The concentration of this solution is reported as the minimal inhibitory concentration (MIC).
(§4) A number of compounds of this invention were tested for in vitro antimicrobial activity against several pathogenic microorganisms using the above described procedure except that trypticase soy broth was used in place of half strength brain-heart infusion as the medium.

C. albicans = assay: Serial dilution MIC test, C. albicans; format: cell-based; conditions: Candida albicans; trypticase soy broth, 37° C, 36 hours; read-out: MINIMUM INHIBITORY CONCN. C. albicans
Experimental: as §1, §2, §3, §4

Ps. aeruginosa = assay: Serial dilution MIC test, Ps. aeruginosa; format: cell-based; conditions: Pseudomonas aeruginosa; trypticase soy broth, 37° C, 36 hours; read-out: MINIMUM INHIBITORY CONCN. Ps. aeruginosa
Experimental: as §1, §2, §3, §4

A. niger = assay: Serial dilution MIC test, A. niger; format: cell-based; conditions: Aspergillus niger; trypticase soy broth, 37° C, 36 hours; read-out: MINIMUM INHIBITORY CONCN. A. niger
Experimental: as §1, §2, §3, §4

S. aureus = assay: Serial dilution MIC test, S. aureus; format: cell-based; conditions: Staphylococcus aureus, read-out: MINIMUM […]. S. aureus; trypticase soy broth, 37° C, 36 hours; read-out: MINIMUM INHIBITORY CONCN. S. aureus
Experimental: as §1, §2, §3, §4

[1] = test system: S. Mutans, Strain OMZ-176E; assay: Serial dilution minimum inhibitory concentration (MIC) test, S. mutans; format: cell-based; conditions: Streptococcus mutans, half strength brain-heart infusion broth, 37° C, 36 hours
Experimental: as §3, with “A quantitative serial dilution test may also be performed by the following procedure. A 20 mg/ml solution of the compound to be tested is prepared in a standard brain-heart infusion broth medium which has been diluted with water to one-half standard strength. Serial” for “Serial”, “(MIC). The minimum inhibitory concentration of a number of a number of compounds of this invention with respect to the microorganism S. Mutans, Strain OMZ-176E were determined by the procedure described above. Chlorhexidine diacetate, a commercially successful antimicrobial, was used as a control.” for “(MIC).”

[2] = Staining of extracted human incisors in vitro; conditions: ten days; for discoloration of teeth: 0.2% and 1% solutions, 10 minutes daily, saliva at 37° C
Experimental: The staining properties of the compound of Example II were compared with those of chlorhexidine by the following procedure. Test solutions were prepared containing 0.2% and 1% of chlorhexidine and 0.2% and 1% of the compound of Example II as the trimethanesulfonate salt. Extracted human incisors, which were used without cleaning or other treatment which would remove the dental pellicle, were suspended from wires. Daily, each tooth was immersed for 10 minutes in one of the test solutions, then suspended in whole stimulated saliva and incubated at 37° C for 24 hours.

[3] = cited from earlier work; for taste perception of foodstuffs: for several hours; for clinical antiplaque effectiveness: in vivo; for local irritation: oral mucosa and tongue; for staining of teeth, tongue, gums, oral mucosa: prolonged use

Structure (SMILES)	MIC (E. coli)	MIC (C. albicans)	MIC (Ps. aeruginosa)	MIC (A. niger)	MIC (S. aureus)	MIC [1]	also measured
N=C(NCCN1CCN(CCNC(=N)NC(=O)NC23CC4CC(CC(C4)C2)C3)CC1)NC(=O)NC12CC3CC(CC(C3)C1)C2 [1,4-bis[2-((1-adamantyl)carbamylguanidino)ethyl]piperazine dimethanesulfonic acid salt]	12.5 µg/mL	0.78 µg/mL	6.25 µg/mL	50 µg/mL	0.39 µg/mL	–	–
CC(C)(C)CC(C)(C)NC(=O)NC(=N)NCCCN1CCN(CCCNC(=N)NC(=O)NC(C)(C)CC(C)(C)C)CC1 [1,4-bis[3-(1,1,3,3-tetramethylbutylcarbamylguanidino)propyl]piperazine dihydrochloride]	–	–	–	–	–	1.25 µg/mL	–
CCCCCC(C)NC(=O)NC(=N)NCCCN1CCN(CCCNC(=N)NC(=O)NC(C)CCCCC)CC1 (stereo not shown) [1,4-bis[3-(1-methylhexyl)carbamylguanidino)propyl]piperazine dihydrochloride]	12.5 µg/mL	6.25 µg/mL	25 µg/mL	25 µg/mL	1.56 µg/mL	–	–
N=C(NCCCN1CCN(CCCNC(=N)NC(=O)NCCc2ccc(Cl)cc2)CC1)NC(=O)NCCc1ccc(Cl)cc1 [1,4-bis[3-(2-(4-chlorophenyl)ethylcarbamylguanidino)propyl]piperazine dihydrochloride]	–	–	–	–	–	1.25 µg/mL	–
CCCCC(CC)CNC(=O)NC(=N)NCCCN1CCN(CCCNC(=N)NC(=O)NCC(CC)CCCC)CC1 (stereo not shown) [1,4-bis[3-(2-ethylhexylcarbamylguanidino)propyl]piperazine dihydrochloride]	–	–	–	–	–	5 µg/mL	–
N=C(NCCCN1CCN(CCCNC(=N)NC(=O)NC23CC4CC(CC(C4)C2)C3)CC1)NC(=O)NC12CC3CC(CC(C3)C1)C2 [1,4-bis[3-((1-adamantyl)carbamylguanidino)propyl]piperazine dimethanesulfonic acid salt]	25 µg/mL	12.5 µg/mL	50 µg/mL	12.5 µg/mL	6.25 µg/mL	–	–
N=C(NCCCN1CCN(CCCNC(=N)NC(=O)NCC2CCCCCC2)CC1)NC(=O)NCC1CCCCCC1 [1,4-bis[3-(cycloheptylmethylcarbamylguanidino)propyl]piperazine dimethanesulfonic acid salt]	12.5 µg/mL	0.78 µg/mL	12.5 µg/mL	50 µg/mL	0.78 µg/mL	–	–
N=C(NCCCN1CCN(CCCNC(=N)NC(=O)NC2CCCCC2)CC1)NC(=O)NC1CCCCC1 [1,4-bis[3-(cyclohexylcarbamylguanidino)propyl]piperazine dimethanesulfonic acid salt]	100 µg/mL	50 µg/mL	100 µg/mL	100 µg/mL	50 µg/mL	–	–
N=C(NCCCN1CCN(CCCNC(=N)NC(=O)NCC2CCCCC2)CC1)NC(=O)NCC1CCCCC1 [1,4-bis[3-(cyclohexylmethylcarbamylguanidino)propyl]piperazine dimethanesulfonic acid salt]	6.25 µg/mL	6.25 µg/mL	100 µg/mL	12.5 µg/mL	0.78 µg/mL	–	–
CCCCCCCCNC(=O)NC(=N)NCCCN1CCN(CCCNC(=N)NC(=O)NCCCCCCCC)CC1 [1,4-bis[3-(n-octylcarbamylguanidino)propyl]piperazine dihydrochloride]	–	–	–	–	–	2.5 µg/mL	–
Cl.Cl.N=C(NCCCN1CCN(CCCNC(=N)NC(=O)NCC2CCCCC2)CC1)NC(=O)NCC1CCCCC1 [1,4-bis[(3-cyclohexylmethylcarbamylguanidino)propyl]piperazine dihydrochloride]	–	–	–	–	–	1.25 µg/mL	–
CN(CCCNC(=N)NC(=O)Nc1ccc(Cl)cc1)CCCNC(=N)NC(=O)Nc1ccc(Cl)cc1 [1,7-bis(4-chlorophenylcarbamylguanidine)-4-methyl-4-azaheptane]	–	–	–	–	–	0.625 µg/mL (≈ 1.17 µM)	–
CN(CCNC(=N)NC(=O)Nc1ccc(Cl)cc1)CCN(C)CCNC(=N)NC(=O)Nc1ccc(Cl)cc1 [1,8-bis(4-chlorophenylcarbamylguanidino)-3,6-dimethyl-3,6-diazaoctane]	–	–	–	–	–	1.25 µg/mL (≈ 2.21 µM)	–
N=C(NCCCN1CCN(CCCNC(=N)NC(=O)Nc2ccc(Cl)cc2)CC1)NC(=O)Nc1ccc(Cl)cc1 [Example II]	–	–	–	–	–	0.156 to 0.312 µg/mL (≈ 0.264 to 0.527 µM)	discoloration of teeth [2]: no signs of discoloration
CCCCC(CC)CNC(=N)NC(=N)NCCCCCCNC(=N)NC(=N)NCC(CC)CCCC (stereo not shown) [alexidine, 1,6-bis-(2-ethylhexylbiguanidino)hexane]	–	–	–	–	–	–	taste perception of foodstuffs [3]: alter taste perception of foodstuffs for several hours; clinical antiplaque effectiveness [3]: clinically effective antiplaque agents; local irritation [3]: produce local irritation of the oral mucosa and tongue; staining of teeth, tongue, gums, oral mucosa [3]: produce stains of various colors on the teeth, tongue, gums, oral mucosa
N=C(NCCCCCCNC(=N)NC(=N)Nc1ccc(Cl)cc1)NC(=N)Nc1ccc(Cl)cc1 [chlorhexidine diacetate, reference compound]	–	–	–	–	–	0.156 to 0.312 µg/mL	–
[H]/N=C(\N/C(=N/[H])NCCCCCCNC(=N)NC(=N)Nc1ccc(Cl)cc1)Nc1ccc(Cl)cc1 [chlorhexidine, 1,6-bis-(p-chlorophenylbiguanidino)hexane]	1.56 µg/mL (≈ 3.09 µM)	3.12 µg/mL (≈ 6.17 µM)	50 µg/mL (≈ 98.9 µM)	12.5 µg/mL (≈ 24.7 µM)	0.39 µg/mL (≈ 0.772 µM)	–	taste perception of foodstuffs [3]: alter taste perception of foodstuffs for several hours; clinical antiplaque effectiveness [3]: clinically effective antiplaque agents; local irritation [3]: produce local irritation of the oral mucosa and tongue; staining of teeth, tongue, gums, oral mucosa [3]: produce stains of various colors on the teeth, tongue, gums, oral mucosa; also recorded: staining of the teeth, tongue, and gums; discoloration of teeth [2]: greyish-brown discoloration; dependence of amount of discoloration on concentration ([2]; 0.2% versus 1%): independent of the concentration
